Test in all cases: biochemical
What all share (set-up): DiscoverX KinomeScan competition binding assay across human kinases; per cent of control at 10 and 100 uM

The target in one assay is CDKL3 (Homo sapiens, UniProt Q8IVW4). The note with it: competition binding, % of control; read-out: Percent Control (100 uM Levosimendan). In short, it runs like this: (§1)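 Binding is expressed as %control, normalised between positive and negative control signals. The compound (levosimendan) was tested at 10 μM and 100 μM in the DiscoverX KinomeScan competition binding format against human kinases.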

A further assay concerns the target TGFBR1 (Homo sapiens, UniProt P36897). The note with it: competition binding, % of control. In short, it runs like this:
as §1

Another assay deals with T1, CDC2L2 (Homo sapiens, UniProt Q9UQ88).
T1 construct: gene CDK11A
The note with it: competition binding, % of control; read-out: Percent Control (100 uM Levosimendan). In short, it runs like this: as §1

In a further assay the target is T2, JNK1 (Homo sapiens, UniProt P45983).
T2 construct: gene MAPK8
Conditions: competition binding, % of control; read-out: Percent Control (100 uM Levosimendan). The method, boiled down: as §1

The target of another assay is STK35 (Homo sapiens, UniProt Q8TDR2). Conditions: competition binding, % of control; read-out: Percent Control (100 uM Levosimendan). In short, it runs like this: as §1
STK35, sequence (Q8TDR2 whole entry): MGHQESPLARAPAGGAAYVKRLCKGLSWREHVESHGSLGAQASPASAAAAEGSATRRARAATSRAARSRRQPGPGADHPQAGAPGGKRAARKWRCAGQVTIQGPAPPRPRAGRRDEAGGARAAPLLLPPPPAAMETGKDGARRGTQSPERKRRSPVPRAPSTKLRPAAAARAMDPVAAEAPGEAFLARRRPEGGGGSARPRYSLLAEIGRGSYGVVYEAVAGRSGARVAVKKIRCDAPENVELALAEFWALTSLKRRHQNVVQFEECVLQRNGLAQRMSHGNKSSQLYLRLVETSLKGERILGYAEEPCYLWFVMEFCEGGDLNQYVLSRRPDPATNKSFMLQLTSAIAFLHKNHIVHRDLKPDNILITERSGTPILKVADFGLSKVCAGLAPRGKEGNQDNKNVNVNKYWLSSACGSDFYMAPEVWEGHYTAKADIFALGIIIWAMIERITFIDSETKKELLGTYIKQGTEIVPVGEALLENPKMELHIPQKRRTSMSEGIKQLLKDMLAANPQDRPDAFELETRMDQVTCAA
A further assay addresses PAK1 (Homo sapiens, UniProt Q13153). The note with it: competition binding, % of control; read-out: Percent Control (100 uM Levosimendan). The method, boiled down:
as §1

A further assay deals with T3, NIK (Homo sapiens, UniProt Q99558).
T3 construct: gene MAP3K14
The note with it: competition binding, % of control; read-out: Percent Control (100 uM Levosimendan). In short, it runs like this:
as §1

The next assay has as its target T4, MINK (Homo sapiens, UniProt Q8N4C8).
T4 construct: gene MINK1
Conditions: competition binding, % of control. The method, boiled down: as §1

A further assay concerns the target PIK3CA(H1047L) (Homo sapiens, UniProt P42336, H1047L). The note with it: competition binding, % of control; read-out: Percent Control (100 uM Levosimendan). The method, boiled down: as §1
In the next assay the target is T5, PCTK2 (Homo sapiens, UniProt Q00537).
T5 construct: gene CDK17
The note with it: competition binding, % of control; read-out: Percent Control (100 uM Levosimendan). In short, it runs like this: as §1

The next assay concerns the target FLT4 (Homo sapiens, UniProt P35916). Conditions: competition binding, % of control. In short, it runs like this: as §1
A further assay concerns the target PIK3CA(C420R) (Homo sapiens, UniProt P42336, C420R). The note with it: competition binding, % of control; read-out: Percent Control (100 uM Levosimendan). The method, boiled down:
as §1

A further assay concerns the target NEK7 (Homo sapiens, UniProt Q8TDX7). Conditions: competition binding, % of control; read-out: Percent Control (100 uM Levosimendan). The method, boiled down: as §1
In a further assay the target is T6, MYLK4 (Homo sapiens, UniProt Q86YV6).
T6 sequence (Q86YV6 1-388): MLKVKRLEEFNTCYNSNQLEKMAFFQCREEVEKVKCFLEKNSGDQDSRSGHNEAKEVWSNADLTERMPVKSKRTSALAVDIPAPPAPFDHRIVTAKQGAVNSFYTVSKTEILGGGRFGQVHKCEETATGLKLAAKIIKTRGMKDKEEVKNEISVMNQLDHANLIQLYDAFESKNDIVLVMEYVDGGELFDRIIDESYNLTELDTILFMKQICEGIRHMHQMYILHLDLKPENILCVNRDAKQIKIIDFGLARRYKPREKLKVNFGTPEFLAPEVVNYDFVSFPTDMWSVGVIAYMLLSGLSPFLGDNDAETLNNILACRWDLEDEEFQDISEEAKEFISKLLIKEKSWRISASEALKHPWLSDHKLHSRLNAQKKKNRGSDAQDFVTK
Conditions: competition binding, % of control. In short, it runs like this: as §1

In the next assay the target is TESK1 (Homo sapiens, UniProt Q15569). Conditions: competition binding, % of control; read-out: Percent Control (100 uM Levosimendan). The method, boiled down:
as §1

The target in the next assay is PIK3CA(H1047Y) (Homo sapiens, UniProt P42336, H1047Y). Conditions: competition binding, % of control; read-out: Percent Control (100 uM Levosimendan). In short, it runs like this: as §1
The mark [1] stands for this setting: read-out: Percent Control (10 uM Levosimendan).
[2] abbreviates: read-out: Percent Control (100 uM Levosimendan).

Structures are written as SMILES.

Among the data in publication PMC6576746, “Rational discovery of dual-indication multi-target PDE/Kinase inhibitor for precision anti-cancer therapy using structural systems pharmacology” (PLoS Computational Biology, 2019) are remaining binding values, retold here.

T4 sequence (Q8N4C8 whole entry): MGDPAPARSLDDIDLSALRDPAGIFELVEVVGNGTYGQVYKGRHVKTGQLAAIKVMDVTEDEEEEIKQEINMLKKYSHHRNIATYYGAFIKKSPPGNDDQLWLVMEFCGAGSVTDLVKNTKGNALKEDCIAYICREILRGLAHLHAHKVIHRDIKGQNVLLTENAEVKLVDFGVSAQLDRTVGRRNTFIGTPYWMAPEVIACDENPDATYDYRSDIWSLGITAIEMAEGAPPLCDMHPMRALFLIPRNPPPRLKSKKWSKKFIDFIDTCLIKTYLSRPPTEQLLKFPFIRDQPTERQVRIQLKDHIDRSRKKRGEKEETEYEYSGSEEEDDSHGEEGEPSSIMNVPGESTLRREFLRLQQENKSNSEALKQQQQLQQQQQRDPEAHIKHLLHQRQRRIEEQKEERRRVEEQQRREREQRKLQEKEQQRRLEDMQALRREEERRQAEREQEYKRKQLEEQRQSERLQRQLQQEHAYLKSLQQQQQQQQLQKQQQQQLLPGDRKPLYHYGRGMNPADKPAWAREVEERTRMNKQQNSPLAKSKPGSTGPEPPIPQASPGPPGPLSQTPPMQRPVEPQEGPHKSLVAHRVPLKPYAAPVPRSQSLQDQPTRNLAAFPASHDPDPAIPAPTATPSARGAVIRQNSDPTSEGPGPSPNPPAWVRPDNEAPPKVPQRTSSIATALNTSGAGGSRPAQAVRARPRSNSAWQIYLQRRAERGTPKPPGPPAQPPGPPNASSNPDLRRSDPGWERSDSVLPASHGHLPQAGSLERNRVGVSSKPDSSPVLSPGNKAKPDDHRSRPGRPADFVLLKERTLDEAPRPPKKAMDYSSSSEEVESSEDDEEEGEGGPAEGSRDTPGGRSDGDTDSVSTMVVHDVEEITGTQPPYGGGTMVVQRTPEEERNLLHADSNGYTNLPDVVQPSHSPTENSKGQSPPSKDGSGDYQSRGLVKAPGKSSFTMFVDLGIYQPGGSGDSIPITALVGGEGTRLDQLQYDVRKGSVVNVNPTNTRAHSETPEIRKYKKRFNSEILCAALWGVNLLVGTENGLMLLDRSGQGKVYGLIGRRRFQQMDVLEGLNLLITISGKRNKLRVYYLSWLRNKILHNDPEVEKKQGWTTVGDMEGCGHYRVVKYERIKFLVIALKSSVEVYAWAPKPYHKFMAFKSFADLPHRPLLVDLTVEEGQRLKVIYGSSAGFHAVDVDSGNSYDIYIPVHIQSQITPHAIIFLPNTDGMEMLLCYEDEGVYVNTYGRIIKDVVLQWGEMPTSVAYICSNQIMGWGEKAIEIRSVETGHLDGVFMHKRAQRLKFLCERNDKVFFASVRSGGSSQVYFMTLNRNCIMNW
TGFBR1, sequence (P36897 whole entry): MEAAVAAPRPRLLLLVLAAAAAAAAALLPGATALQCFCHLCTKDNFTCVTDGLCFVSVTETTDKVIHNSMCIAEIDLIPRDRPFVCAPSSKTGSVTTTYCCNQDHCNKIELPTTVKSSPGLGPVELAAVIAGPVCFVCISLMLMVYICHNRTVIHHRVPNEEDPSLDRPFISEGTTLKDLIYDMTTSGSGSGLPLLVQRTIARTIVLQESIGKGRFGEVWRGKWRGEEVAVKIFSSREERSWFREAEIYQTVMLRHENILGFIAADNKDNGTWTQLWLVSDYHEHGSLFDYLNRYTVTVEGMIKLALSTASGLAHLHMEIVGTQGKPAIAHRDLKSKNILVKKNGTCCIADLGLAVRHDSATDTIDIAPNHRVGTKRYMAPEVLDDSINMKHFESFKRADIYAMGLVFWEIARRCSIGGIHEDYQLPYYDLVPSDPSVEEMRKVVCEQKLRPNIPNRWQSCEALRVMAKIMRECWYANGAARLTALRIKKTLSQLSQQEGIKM
FLT4, sequence (P35916 whole entry): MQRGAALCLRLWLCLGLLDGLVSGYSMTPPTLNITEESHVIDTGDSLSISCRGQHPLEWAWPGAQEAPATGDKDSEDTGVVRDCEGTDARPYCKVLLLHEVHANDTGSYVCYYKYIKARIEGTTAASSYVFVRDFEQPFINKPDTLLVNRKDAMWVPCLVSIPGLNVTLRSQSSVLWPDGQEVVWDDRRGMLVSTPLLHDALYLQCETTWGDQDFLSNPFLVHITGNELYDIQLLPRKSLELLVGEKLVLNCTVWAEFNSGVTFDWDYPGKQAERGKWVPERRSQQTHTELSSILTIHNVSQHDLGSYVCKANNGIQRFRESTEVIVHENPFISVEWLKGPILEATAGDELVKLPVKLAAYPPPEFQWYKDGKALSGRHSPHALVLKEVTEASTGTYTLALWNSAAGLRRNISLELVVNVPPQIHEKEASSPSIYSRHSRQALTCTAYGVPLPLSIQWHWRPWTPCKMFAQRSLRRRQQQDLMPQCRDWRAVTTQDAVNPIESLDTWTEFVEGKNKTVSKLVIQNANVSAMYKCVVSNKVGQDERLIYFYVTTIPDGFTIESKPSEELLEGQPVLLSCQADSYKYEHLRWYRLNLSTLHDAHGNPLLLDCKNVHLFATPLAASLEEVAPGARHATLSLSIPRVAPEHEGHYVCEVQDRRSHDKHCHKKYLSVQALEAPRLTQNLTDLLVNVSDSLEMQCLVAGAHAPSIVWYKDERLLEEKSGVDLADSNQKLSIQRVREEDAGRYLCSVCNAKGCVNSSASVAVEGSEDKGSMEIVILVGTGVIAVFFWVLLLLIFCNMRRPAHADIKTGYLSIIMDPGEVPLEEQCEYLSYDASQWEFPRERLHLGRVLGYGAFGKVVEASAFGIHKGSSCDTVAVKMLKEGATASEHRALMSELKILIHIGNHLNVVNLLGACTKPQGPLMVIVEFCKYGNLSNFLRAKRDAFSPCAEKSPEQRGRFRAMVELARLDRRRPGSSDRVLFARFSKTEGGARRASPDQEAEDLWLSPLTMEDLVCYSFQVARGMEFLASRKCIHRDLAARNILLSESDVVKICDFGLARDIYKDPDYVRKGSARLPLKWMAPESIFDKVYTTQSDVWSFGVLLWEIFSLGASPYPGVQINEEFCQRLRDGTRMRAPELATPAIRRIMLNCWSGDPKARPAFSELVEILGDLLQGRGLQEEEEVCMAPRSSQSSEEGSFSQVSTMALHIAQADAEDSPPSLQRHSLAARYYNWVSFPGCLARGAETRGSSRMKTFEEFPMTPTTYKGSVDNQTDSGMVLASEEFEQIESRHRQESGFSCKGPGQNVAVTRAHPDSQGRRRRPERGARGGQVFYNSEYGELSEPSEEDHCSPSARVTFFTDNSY
PAK1, sequence (Q13153 whole entry): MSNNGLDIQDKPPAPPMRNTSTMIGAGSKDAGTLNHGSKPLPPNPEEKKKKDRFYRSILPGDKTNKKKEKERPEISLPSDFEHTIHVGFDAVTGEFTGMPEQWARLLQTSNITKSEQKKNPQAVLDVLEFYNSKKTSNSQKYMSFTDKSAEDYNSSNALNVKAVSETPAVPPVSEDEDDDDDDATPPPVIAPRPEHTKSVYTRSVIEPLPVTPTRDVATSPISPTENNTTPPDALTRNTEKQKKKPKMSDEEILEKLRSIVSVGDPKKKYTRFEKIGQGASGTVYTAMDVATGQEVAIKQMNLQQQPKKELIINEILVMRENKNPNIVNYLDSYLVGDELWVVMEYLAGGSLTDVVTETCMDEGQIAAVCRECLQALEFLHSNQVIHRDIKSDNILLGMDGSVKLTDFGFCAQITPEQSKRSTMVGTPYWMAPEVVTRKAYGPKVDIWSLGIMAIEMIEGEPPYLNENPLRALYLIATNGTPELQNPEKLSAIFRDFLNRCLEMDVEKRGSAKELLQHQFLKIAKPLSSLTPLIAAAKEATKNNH
TESK1, sequence (Q15569 whole entry): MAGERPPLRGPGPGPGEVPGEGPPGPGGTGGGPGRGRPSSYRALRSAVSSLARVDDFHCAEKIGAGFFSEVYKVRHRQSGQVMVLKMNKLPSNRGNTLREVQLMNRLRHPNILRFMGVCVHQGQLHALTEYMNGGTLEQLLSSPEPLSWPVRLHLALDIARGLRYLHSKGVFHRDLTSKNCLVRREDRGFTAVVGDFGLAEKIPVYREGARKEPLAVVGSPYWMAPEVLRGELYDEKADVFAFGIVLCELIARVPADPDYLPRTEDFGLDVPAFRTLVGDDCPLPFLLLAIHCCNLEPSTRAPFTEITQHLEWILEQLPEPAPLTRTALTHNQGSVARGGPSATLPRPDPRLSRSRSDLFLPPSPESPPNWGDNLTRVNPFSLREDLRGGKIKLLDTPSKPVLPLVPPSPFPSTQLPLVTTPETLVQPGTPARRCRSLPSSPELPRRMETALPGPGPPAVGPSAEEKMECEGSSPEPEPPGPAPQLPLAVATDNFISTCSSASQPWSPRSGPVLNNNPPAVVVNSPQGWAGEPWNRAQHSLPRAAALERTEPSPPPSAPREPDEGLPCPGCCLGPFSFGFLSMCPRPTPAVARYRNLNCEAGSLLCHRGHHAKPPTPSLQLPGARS

Regarding `C[C@@H]1CC(=O)NN=C1c1ccc(NN=C(C#N)C#N)cc1` [levosimendan], the remaining binding at 100 µM at CDKL3 was 100%; on TGFBR1 (setting [2]) it was 48%; at CDC2L2, 100%; at JNK1, 71%; on STK35, 81%; at PAK1, 73%. The remaining binding at 100 µM on NIK turned out to be 83%; at MINK (setting [2]) it was 26%; at PIK3CA(H1047L) it was 100%; at PCTK2, 100%; on FLT4 (setting [2]), 49%; on PIK3CA(C420R) it was 100%. Also, the remaining binding at 100 µM was 100% at NEK7, 24% at MYLK4 (setting [2]), 96% at TESK1 and 100% at PIK3CA(H1047Y). Moreover, the remaining binding at 10 µM was 89% at TGFBR1 (setting [1]), 77% on MINK (setting [1]), 100% on FLT4 (setting [1]) and 85% on MYLK4 (setting [1]).
